This is an account of results in patent US20140011853A1, “SUBSTITUTED 3-(BIPHENYL-3-YL)-8,8-DIFLUORO-4-HYDROXY-1-AZASPIRO[4.5]DEC-3-EN-2-ONES FOR THERAPY” (BAYER INTELLECTUAL PROPERTY GMBH, priority 2011, published 2014).

Several values for one entry are separate records, joined by “and”; a condition that tells them apart may be missing. Identical values can stand only once.

In one data set the test system is human ACC1. Briefly: Human ACC1 enzyme assay (ADP-Glo). Format: biochemical. For orientation: In ADP-Glo the light output rises with the ADP produced.
Another data set relates to MCF7. Briefly: Tumour cell proliferation, CellTiter-Glo, 96-hour incubation, MCF7. Format: cell-based. To be noted: Homo sapiens, MCF7, 96 h; read-out: MCF7 IC50. The procedure: (§1) In accordance with the invention, the substances were tested in cell-based assays for the ability of the substances of inhibiting tumour cell proliferation after a 96-hour incubation with the substance. Cell viability was tested using the CellTiter-Glo® luminescent cell viability assay (Promega). The cells were sown at a density of 2000-5000 cells/well (depending on the cell line) in 100 μl growth medium on 96-well microtiter plates. For each cell line examined, cells were sown on a separate plate to determine the luminescence at t=0 hours and t=96 hours. After overnight incubation at 37° C., the luminescence values for the t=0 samples were determined. The dose plates for the t=96 hours points in time were treated with substances diluted with growth medium. The cells were then incubated at 37° C. for 96 hours, and the luminescence values for the t=96 hours samples were then determined. For data analysis, the t=0 values were subtracted from the t=96 hours values for treated and untreated samples. The differences in luminescence in percent between substance-treated samples and control values were used to determine the growth inhibition in percent.
(§2) The substances were tested in the following cell lines which represent the stated indications in an exemplary manner: […]
A general note: Cellular ATP, detected with luciferase, serves as a proxy for viable cell number.

The test system of the next data set is PC3. The experiment in a line: Tumour cell proliferation, CellTiter-Glo, 96-hour incubation, PC3. Format: cell-based. To be noted: Homo sapiens, PC-3, 96 h; read-out: PC3 IC50. The procedure:
as §1, §2

Data set [1] is described as follows: Octanol/water distribution coefficient (logP/D), isocratic HPLC method. To be noted: pH 7.4. Format: physicochemical. The source says:
Assay for Determining the Octanol/Water Distribution Coefficient (logP/D):
The distribution coefficient octanol/water P or D is a key parameter for estimating membrane penetration and permeability. It is defined as the ratio of the equilibrium concentrations of a substance in the two-phase system octanol/water.
It is usually stated in form of the decadic logarithm (logP or logD).
logP describes the distribution behaviour of a substance exclusively present in its neutral form. logD describes the distribution behaviour of a substance at a certain pH; depending on the ionization constant pKa of the substance, some of the substance may be present in ionic form, and some in neutral form.
The logP/D of the active compounds was determined using an isocratic HPLC method (HPLC=high performance liquid chromatography) (literature: OECD Guideline for Testing of Chemicals No. 117). The method is based on the correlation of the HPLC retention time of the test substance to that of reference substances with known distribution coefficients.
The test substance was employed as a 10 mM solution in DMSO (DMSO=dimethyl sulphoxide). 10 μl of this solution were made up to 100 μl with a methanol/water mixture in a ratio of 7+3.
The nine reference substances were dissolved individually in methanol. 100 μl each of the stock solutions were added to an HPLC vial and mixed with 300 μl of water.
A formamide solution was used to determine the hold-up time. To this end, 7 mg of formamide were dissolved in 10 ml of methanol. 100 μl of this stock solution were mixed with 500 μl of methanol and 200 μl of water.
All solutions were chromatographed using a flow rate of 1.00 ml/min.
Injection Protocol: formamide, references, test substance 1, test substance 2, . . . , formamide, references.
Evaluation of the retention times was carried out in a diode array detector (DAD) at 200-400 nm Via the molecular mass, the identity of the test substance was checked using the downstream mass spectrometer.
The HPLC run was evaluated using the Waters software Masslynx 4.1.
The logP/D values were calculated using the software “POW Determination” (proprietary development).

The test system of the next data set is H460. The experiment in a line: Tumour cell proliferation, CellTiter-Glo, 96-hour incubation, H460. It is filed as cell-based. Conditions: Homo sapiens, NCI-H460, 96 h; read-out: H460 IC50. The procedure:
as §1, §2

A short description of data set [2]: Membrane affinity logMA (MA-Transil). Format: physicochemical. To be noted: buffer pH 7.4.
Another data set deals with KM12. The experiment in a line: Tumour cell proliferation, CellTiter-Glo, 96-hour incubation, KM12. To be noted: Homo sapiens, KM12, 96 h; read-out: KM12 IC50. Format: cell-based. The procedure: as §1, §2
For the next data set, the target named is human ACC2 (Homo sapiens, UniProt O00763). Briefly: Human ACC2 enzyme assay (ADP-Glo). Conditions: ACC 2 IC50, individual measurements.
human ACC2, sequence (O00763 27-2458 limits assumed): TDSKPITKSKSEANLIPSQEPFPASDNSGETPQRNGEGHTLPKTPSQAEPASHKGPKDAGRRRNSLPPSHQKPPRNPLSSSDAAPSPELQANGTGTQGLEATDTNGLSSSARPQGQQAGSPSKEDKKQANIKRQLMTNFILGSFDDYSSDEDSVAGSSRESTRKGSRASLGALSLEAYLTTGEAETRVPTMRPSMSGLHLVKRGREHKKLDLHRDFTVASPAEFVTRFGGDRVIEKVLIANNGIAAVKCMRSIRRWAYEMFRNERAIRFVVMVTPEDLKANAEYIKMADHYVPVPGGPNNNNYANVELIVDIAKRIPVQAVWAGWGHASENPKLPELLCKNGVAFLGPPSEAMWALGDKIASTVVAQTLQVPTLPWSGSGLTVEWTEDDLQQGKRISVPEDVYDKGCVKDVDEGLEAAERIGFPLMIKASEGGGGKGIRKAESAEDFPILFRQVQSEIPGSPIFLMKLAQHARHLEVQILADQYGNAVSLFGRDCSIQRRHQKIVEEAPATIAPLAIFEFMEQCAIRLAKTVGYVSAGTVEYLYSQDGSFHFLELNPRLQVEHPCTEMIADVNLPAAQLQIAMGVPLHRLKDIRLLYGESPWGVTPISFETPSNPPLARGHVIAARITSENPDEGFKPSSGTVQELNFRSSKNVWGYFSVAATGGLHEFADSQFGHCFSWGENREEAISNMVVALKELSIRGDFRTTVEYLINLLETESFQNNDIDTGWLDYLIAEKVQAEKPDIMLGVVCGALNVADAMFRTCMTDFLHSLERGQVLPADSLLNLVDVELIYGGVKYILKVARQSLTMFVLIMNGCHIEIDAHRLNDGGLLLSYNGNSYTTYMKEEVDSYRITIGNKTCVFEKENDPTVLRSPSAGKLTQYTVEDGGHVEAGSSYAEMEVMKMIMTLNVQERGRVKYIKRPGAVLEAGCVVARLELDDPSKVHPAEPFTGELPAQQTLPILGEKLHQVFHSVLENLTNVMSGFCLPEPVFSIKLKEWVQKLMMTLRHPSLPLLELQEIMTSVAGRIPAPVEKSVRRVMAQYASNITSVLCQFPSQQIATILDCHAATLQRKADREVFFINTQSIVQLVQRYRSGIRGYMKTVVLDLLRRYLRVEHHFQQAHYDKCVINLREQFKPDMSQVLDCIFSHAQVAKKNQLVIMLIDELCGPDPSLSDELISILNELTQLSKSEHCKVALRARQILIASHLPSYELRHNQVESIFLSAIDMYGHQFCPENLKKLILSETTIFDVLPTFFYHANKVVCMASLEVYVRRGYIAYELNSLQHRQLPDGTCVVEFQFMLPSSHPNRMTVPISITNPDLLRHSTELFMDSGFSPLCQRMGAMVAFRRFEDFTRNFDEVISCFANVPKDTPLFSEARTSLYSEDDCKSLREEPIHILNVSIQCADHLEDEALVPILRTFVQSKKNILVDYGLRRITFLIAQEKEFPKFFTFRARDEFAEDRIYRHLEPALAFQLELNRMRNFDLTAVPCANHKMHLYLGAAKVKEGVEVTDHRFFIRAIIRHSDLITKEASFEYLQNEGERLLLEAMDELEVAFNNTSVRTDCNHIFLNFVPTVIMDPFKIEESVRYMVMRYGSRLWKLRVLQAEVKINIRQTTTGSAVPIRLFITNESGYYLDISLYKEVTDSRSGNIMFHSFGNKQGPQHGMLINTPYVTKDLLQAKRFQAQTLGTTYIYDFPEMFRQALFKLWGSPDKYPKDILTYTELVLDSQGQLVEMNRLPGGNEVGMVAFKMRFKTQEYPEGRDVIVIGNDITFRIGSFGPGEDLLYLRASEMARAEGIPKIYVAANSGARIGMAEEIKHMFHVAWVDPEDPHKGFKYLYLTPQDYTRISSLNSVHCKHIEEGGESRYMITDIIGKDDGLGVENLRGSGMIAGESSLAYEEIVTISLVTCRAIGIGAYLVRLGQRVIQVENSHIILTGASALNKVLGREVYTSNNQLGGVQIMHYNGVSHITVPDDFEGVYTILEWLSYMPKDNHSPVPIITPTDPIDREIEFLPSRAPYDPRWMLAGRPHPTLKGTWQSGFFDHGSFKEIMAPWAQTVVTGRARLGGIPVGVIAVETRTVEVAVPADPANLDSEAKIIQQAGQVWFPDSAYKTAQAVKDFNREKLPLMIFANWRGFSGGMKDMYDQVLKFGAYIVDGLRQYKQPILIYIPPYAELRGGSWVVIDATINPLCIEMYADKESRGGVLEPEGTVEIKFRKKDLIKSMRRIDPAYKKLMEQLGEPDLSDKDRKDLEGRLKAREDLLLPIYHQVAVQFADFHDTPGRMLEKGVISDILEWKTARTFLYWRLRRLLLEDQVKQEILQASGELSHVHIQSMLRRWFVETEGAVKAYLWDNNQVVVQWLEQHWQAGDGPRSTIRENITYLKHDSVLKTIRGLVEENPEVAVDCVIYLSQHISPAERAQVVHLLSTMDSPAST
The subject of another data set is plasma proteins. Briefly: Plasma protein binding by equilibrium dialysis, mouse. Format: in vitro ADME. The procedure:
The binding of test substances to plasma proteins is determined by equilibrium dialysis by means of the Ht-dialysis apparatus (96-well) made of Teflon and a semipermeable membrane (regenerated cellulose, MWCO 12-14K). This separates 150 μl each of a plasma side and a buffer side (50 mM phosphate buffer). The test substance is added in 2 concentrations (usually 3 and 0.3 μM) to the plasma side and binds to plasma proteins. The unbound fraction of the test substance passes through the membrane and is distributed on either side until equilibrium is established (after approx. 6-8 h at 37° C.). The substance concentration on the buffer side and the plasma side is determined by LC-MS analysis. For this, both sides are brought by dilution with buffer or plasma to the same matrix (10% plasma) and then precipitated with methanol. The free (unbound) fraction (fu) is calculated from the quotient of the buffer and plasma concentration. Stability tests and recovery tests are run concurrently as controls. In addition, the substance in buffer is dialysed against buffer, to check the nonspecific binding to apparatus and membrane and establishment of equilibrium. Because during incubation the osmotic pressure of the plasma proteins leads to dilution of the plasma (volume shift), this possible error is determined by weighing blank plasma samples and is included in the calculation of fu. Establishment of equilibrium and plasma stability should have a value not lower than 80% and the recovery should be at least 30%. A free fraction of <1% is regarded as high, between 1 and 10% as moderate and >10% as low plasma protein binding.
(In general: Equilibrium dialysis compares concentrations on both sides of a semipermeable membrane.)

The target of data set [3] is human serum albumin (HSA) (Homo sapiens, UniProt P02768). The experiment in a line: Protein binding to human serum albumin (HSA-Transil). To be noted: human, pH 7.4.
human serum albumin (HSA), sequence (P02768 25-609): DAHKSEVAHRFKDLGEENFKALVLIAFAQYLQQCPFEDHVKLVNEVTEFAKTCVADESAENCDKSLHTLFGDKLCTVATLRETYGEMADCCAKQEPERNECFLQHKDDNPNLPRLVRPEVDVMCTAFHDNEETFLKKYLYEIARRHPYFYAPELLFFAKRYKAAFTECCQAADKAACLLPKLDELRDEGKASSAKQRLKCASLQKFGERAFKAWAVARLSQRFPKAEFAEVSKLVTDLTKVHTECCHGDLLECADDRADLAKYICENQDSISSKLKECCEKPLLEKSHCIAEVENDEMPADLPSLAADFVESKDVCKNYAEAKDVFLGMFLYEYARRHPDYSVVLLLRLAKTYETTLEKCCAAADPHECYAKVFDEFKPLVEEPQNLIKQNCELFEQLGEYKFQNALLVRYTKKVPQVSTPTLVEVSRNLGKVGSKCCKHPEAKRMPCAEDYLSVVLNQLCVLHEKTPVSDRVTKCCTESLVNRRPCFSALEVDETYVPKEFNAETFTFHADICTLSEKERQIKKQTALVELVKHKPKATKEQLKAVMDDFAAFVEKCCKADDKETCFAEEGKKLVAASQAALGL

The term IC50 denotes the concentration at which inhibition is half-maximal. In general, chromatographic logP refers to a lipophilicity value derived from retention on a column. Read a high chromatographic logP as higher lipophilicity. The term Kd denotes the equilibrium constant for the complex coming apart. High values mean lower affinity, low ones higher affinity. As for `Cc1ccc(-c2ccc(Cl)cc2)cc1C1=C(O)[C@]2(CC[C@H](C(F)(F)F)CC2)NC1=O` [V.2-a, (5s,8s)-3-(4′-Chloro-4-methylbiphenyl-3-yl)-4-hydroxy-8-(trifluoromethyl)-1-azaspiro[4.5]dec-3-en-2-one, reference compound], the “Selectivity ACC1 vs. ACC2 (mean of the individual measurements ± standard deviation)” value in the data set on human ACC1 is recorded as 9.8 ± 1.4. Besides, the “Ratio of IC50s ACC2/ACC1 (respective measurement)” value in the data set on human ACC1 (pairwise, same dilution series) was 11.2 and 8.4. In addition, the IC50 in the data set with MCF7 was 35 nM; in the data set on PC3, 38 nM; in the data set on H460, 57 nM; with KM12 it was 37 nM; on human ACC2, 1220 nM and 940 nM. The compound further yielded a chromatographic logP in data set [1] of 2.23. The logMA in data set [2] is 2.38 (2.0-2.7, n = 4). Also, the “fu (mouse)” value with plasma proteins amounted to 2.41%. In data set [3], this compound returned a Kd at 0.25 μmol/liter of 3070 nM.
